Experimental data reported in ChEMBL document CHEMBL3507680, “University of Dundee, Gates Library screen for HepG2 cell viability”.

Test: Human HepG2 cell viability assay in 384 well format
Format: toxicity, cell-based
Parameters: dose 125 nL, time 70.5 hour; concentration not given beside the values
Conditions: HepG2 cells, read-out: Inhibition

Structure (SMILES) | cytotoxicity at 70.5 h
O=C(c1cnns1)N1CCN(Cc2ccc(F)cc2Cl)CC1 | -4.81%
COc1cccc(N2CCC(CNC(=O)NCc3ccco3)C2)c1 (stereo not drawn) | -0.834%
COc1cccc(N2CCC(CNC(=O)N(C)Cc3ccco3)C2)c1 (stereo not drawn) | -3.66%
COCCN1CCN(CC(=O)N(C)Cc2ccc(C)o2)CC1C (stereo not drawn) | -12.6%
CS(=O)(=O)CCNCc1ccc(OCc2ccncc2)cc1 | 19.2%
Cn1nc2c(cc1=O)CN(Cc1ccc(-n3cccn3)cc1)CC2 | -6.38%
CN1CCC(NC(=O)Nc2ccc(Cl)c(F)c2)C1=O (stereo not drawn) | 2.58%
CC(C)CN1C(=O)C2(CCCC2)NC12CCSCC2 | 0.871%
O=C1CN(C(=O)C2CCOCC2)CCN1Cc1ccc(Cl)cc1 | 0.576%
CN(C)c1nccc(CNS(=O)(=O)c2cc(Cl)cc(Cl)c2)n1 | -1.35%
OCC(O)CSCc1cc(Cl)ccc1Cl (stereo not drawn) | -3.91%
OCC(O)CSCc1ccc(F)cc1Cl (stereo not drawn) | 19.6%
CCN(Cc1cccc(NC(=O)COCCOC)c1)C(C)=O | 1.86%
COc1ccccc1N1CCC(CNC(=O)N(C)Cc2ccco2)C1 (stereo not drawn) | -3.56%
CN(CCCc1cc(-c2ccc(F)cc2)n[nH]1)C(=O)CCn1cncn1 | 1.64%
CN(CCCc1cc(-c2ccccc2)n[nH]1)C(=O)CCCn1cncn1 | -6.04%
COc1cc(F)c(S(=O)(=O)NCc2ccnc(N(C)C)n2)cc1OC | -8.38%
Cc1cccc(CNCC2COC3(CCCC3)O2)c1C (stereo not drawn) | 3.58%
O=C(NCc1cccnc1N1CCCCC1)c1ccc2cc[nH]c2c1 | -15.2%
O=C(NCc1ccc(Br)c(F)c1)Nc1cn[nH]c1 | -22.7%
Cc1noc(C)c1CN1CCCC1c1nnc2ccccn12 (stereo not drawn) | -23.7%
Cc1ccc(CNC(=O)NCc2ccco2)s1 | -24.6%
CCS(=O)(=O)N1CCN(C(C)c2ncc(-c3ccccc3)o2)CC1 (stereo not drawn) | -19.2%

Structure (SMILES) | cytotoxicity at 70.5 h
CC(O)CN1CCN(C(=O)CCOc2ccccc2F)CC1 (stereo not drawn) | -17.1%
CCn1c(C2CCCN2Cc2noc(C(C)(C)C)n2)nc2ccccc21 (stereo not drawn) | -26.2%
Cc1ncsc1C(=O)OCCN1CCCCCC1=O | -8.25%
Cc1nc(COc2ccc(S(=O)(=O)N(C)C)cc2)sc1C | -24.1%
Cc1nnc(-c2cccc(C#N)c2)n1C1CCN(C(C)C)C1=O (stereo not drawn) | -11.3%
CN(Cc1ccncc1)c1cncc(Br)c1 | -14.6%
CN(Cc1ccc([S+](C)[O-])cc1)c1cncc(Br)c1 (stereo not drawn) | -23.7%
Cc1cc(C(=O)NCC(=O)N2CCOCC2)nn1C(C)(C)C | -17.2%
Cn1ncnc1NCc1ccc(Br)cc1 | -5.73%
CC(CNC(=O)c1cnc[nH]1)Oc1ccccc1Br (stereo not drawn) | -15.7%
CCCN(CCc1ccccn1)C(=O)Cn1cc(C)cn1 | -4.61%
COc1ccc(C(C)N2CCC(CO)CC2)cc1Cl (stereo not drawn) | -2.59%
COc1ccc(C(C)N2CCC(OC)CC2)cc1Cl (stereo not drawn) | -5.66%
CC(c1ccc(F)c(F)c1)N(C)CCS(=O)(=O)CCC(N)=O (stereo not drawn) | -9.48%
OCc1ccc(N2CCN(c3ncccn3)CC2)c(F)c1 | -5.65%
NCc1ccc(N2CCN(c3ncccn3)CC2)c(F)c1 | 6.72%
CCOCCCC(=O)Nc1cc(C(N)=O)ccc1N1CCCCC1 | -9.3%
O=C(c1ccc2c(c1)[nH]c(=O)n2C1CCCC1)N1CCSCC1 | -4.63%
O=C(CNc1cccc(S(=O)(=O)C(F)F)c1)NCc1ccco1 | 11.3%
O=C(Nc1ccncc1)NC1CCN(c2ccccc2Cl)C1=O (stereo not drawn) | -5.27%
CN(CCNS(C)(=O)=O)C(=O)c1ccc(Cl)c(Cl)c1 | -6.01%
COc1cccc(C(=O)N2CCN(CC(O)c3ccccc3)CC2)c1 (stereo not drawn) | -9.4%
CC(C)(C)[S+]([O-])CCNC(=O)c1cccc2ncccc12 (stereo not drawn) | -8.58%

Structure (SMILES) | cytotoxicity at 70.5 h
O=C(CNc1cccc(CC(F)(F)F)c1)NCc1ccco1 | -4.32%
CN(C)CCCN(CCC#N)C(=O)Nc1ccc2[nH]ccc2c1 | -4.34%
COCCC(=O)Nc1nccn1Cc1ccc(Br)cc1 | -0.141%
CSCC(=O)Nc1nccn1Cc1ccc(Br)cc1 | -3.91%
O=C(c1ccc2c(c1)[nH]c(=O)n2C1CCCC1)N1CC(O)C1 | -3.54%
CN1CCN(C(=O)c2ccc3c(c2)[nH]c(=O)n3C2CCCC2)CC1 | 9.54%
Cc1ccc(C(=O)N(C)CCNS(C)(=O)=O)cc1Br | -5.18%
COc1cccc(CC2CCCN2CCCC#N)c1 (stereo not drawn) | -1.21%
CN(CC1CCN(CCO)CC1)CC(O)c1ccc(F)cc1 (stereo not drawn) | -5.05%
Cn1cc(CCCN2CCN(Cc3cccc(O)c3)CC2)cn1 | -3.39%
CN(CC1CCN(CCO)CC1)CC(O)c1ccc(F)cc1F (stereo not drawn) | -3.94%
CC(c1cccc(Cl)c1)N(C)CCS(=O)(=O)CCC(N)=O (stereo not drawn) | -0.172%
Cc1nc(C)n(Cc2cccc(NC(=O)NC(C)(CO)C3CC3)c2)n1 (stereo not drawn) | -6.87%
CS(=O)(=O)c1cccc(C(=O)NCC2(c3ccccc3)CC2)c1 | -11.2%
N#Cc1ccc(N2CCCN(CC(N)=O)CC2)cc1 | -9.42%
COCCN1CCC(CNC(=O)C2(S(C)(=O)=O)CCCC2)CC1 | -3.79%
Cn1c(=O)ccn(CC(=O)N2CCCC(n3cccn3)C2)c1=O (stereo not drawn) | -9.63%
Cc1cc(C)n(C2CCCN(C(=O)Cn3ccc(=O)n(C)c3=O)C2)n1 (stereo not drawn) | -7.57%
COCC(C)NS(=O)(=O)c1ccc(Br)cn1 (stereo not drawn) | -11.1%
Cc1ccccc1-c1cc(NC(=O)Cn2ccccc2=O)n(C)n1 | -0.508%
CCC(CCO)NS(=O)(=O)c1ccc(Br)cn1 (stereo not drawn) | -0.693%
Cc1csc(C2(NCc3nc(-c4ccco4)oc3C)CCCC2)n1 | 22.8%
C[C@H](CCO)NS(=O)(=O)c1ccc(Br)cn1 | -6.95%

Structure (SMILES) | cytotoxicity at 70.5 h
Cn1cc(N2CCC(Nc3ccc4nccnc4n3)C2=O)cn1 (stereo not drawn) | -10.5%
O=C(c1ncoc1-c1ccco1)N1CCCN(c2nccs2)CC1 | -2.69%
CCCC1(CNCc2ncc[nH]2)CCC1 | -8.95%
Cc1ccc(-c2nc(CN(Cc3cccs3)C3CCS(=O)(=O)C3)cs2)o1 (stereo not drawn) | 13.7%
CC(NCCCc1cnn(C)c1)c1ccc(Br)s1 (stereo not drawn) | -1.02%
CCN1C[C@H]2N(c3ncccn3)CCC[C@@]2(C(=O)NCC2CC2)C1 | 0.391%
CO[C@H]1CO[C@@]2(CCCN(C(=O)C3CC=CC3)C2)C1 | -0.276%
Cc1nccc(NCc2cncc3c2CCN(CCN(C)C)C3)n1 | 3.96%
CO[C@@H]1CO[C@@]2(CCCN(C(=O)N3CCCC3)C2)C1 | 0.448%
O=C(c1ccccc1)N1CCO[C@@H]2CN(Cc3ccc[nH]3)C[C@@H]2C1 | 1.61%
CC(C)n1c2ccccc2c2c1cc(C(=O)NC1CC1)n2C(=O)N(C)C | 1.81%
CC(=O)N1CCc2nc(-c3ccc(F)cc3)nc(NC(C)C)c2CC1 | 7.5%
COCC(=O)N1CCc2nc(C)nc(NC(C)C)c2CC1 | -6.06%
Cc1nc2c(c(NC(C)C)n1)CCN(C(=O)CCO)CC2 | -14.4%
CC(=O)N1CCO[C@@H]2CN(S(=O)(=O)C3CC3)CC[C@@H]2C1 | -0.0787%
O=C(c1ccnn1-c1ccc2ccccn12)N1CCCC1 | -10.6%
CS(=O)(=O)N1C[C@@H]2COC[C@]2(COCC(=O)N2CCCC2)C1 | -5.68%
O=C(c1ccnn1-c1ccc2ccccn12)N1CCOCC1 | -3.59%
O=C(NC1CC2(CCN(CCO)CC2)Oc2ccccc21)c1csnn1 (stereo not drawn) | -0.338%
Cn1nc(C#N)c2c1CN(C(=O)c1nc[nH]n1)CCC2 | -1.6%
Cc1ccc(N2CCCC3(CCN(C(=O)C4CC4)C3)C2)nn1 (stereo not drawn) | -3.58%
COCCN1CCO[C@@H]2CN(C(=O)c3ccc4[nH]ccc4c3)CC[C@@H]2C1 | -11.1%
CC(C)NC(=O)[C@@H]1C[C@H]2NCC[C@H]2O1 | -7.3%

Structure (SMILES) | cytotoxicity at 70.5 h
CNC(=O)NCC1CCC2(CCN(C(=O)c3ccccn3)CC2)CO1 (stereo not drawn) | 1.5%
O=C(c1ccc[nH]1)N1CCCn2c(CNC3CCC3)nnc2C1 | -4.17%
CC(C)N1CCO[C@@H]2CN(C(=O)NCc3ccccc3)CC[C@@H]2C1 | 28.5%
O=C(c1ccco1)N1CCC2(CCCN(c3ncccn3)C2)C1 (stereo not drawn) | 11%
Cc1occc1C(=O)N1CCC2(CCCN(c3ncc(F)cn3)C2)C1 (stereo not drawn) | -1.51%
Cc1ccc(C(=O)N2CCC3(CCCN(c4ncc(F)cn4)C3)C2)cn1 (stereo not drawn) | -5.14%
CCOCCN1C[C@@H]2CCCO[C@@H]2[C@H](NC(=O)c2cnoc2C)C1 | -6.18%
C1CC(N2C[C@@H]3COC[C@]3(COCC3CCOCC3)C2)C1 | -1.94%
Cc1oncc1C(=O)N[C@@H]1CN(Cc2ccoc2)C[C@@H]2CCCO[C@@H]21 | 2.7%
Cc1cnc(CNC(=O)[C@@]23CCO[C@@H]2CCNC3)cn1 | 0.0687%
Cc1oncc1C(=O)N[C@@H]1CN(CC2CC2)C[C@@H]2CCCO[C@@H]21 | -10.1%
CN(C)C1CC2(CCN(C(=O)NC3CC3)CC2)c2ccccc21 (stereo not drawn) | -7.23%
Cc1noc([C@@H]2C[C@H]3CN(Cc4ccc5c(c4)OCO5)C[C@H]3O2)n1 | -16.8%
CCO[C@@H]1CC[C@H]2[C@H]1OCCN2CCOCc1ccccc1 | -17.9%
CCO[C@H]1CC[C@H]2[C@H]1OCCN2CCOCc1ccccc1 | -11.1%
NCC1CCC2(CCN(C(=O)c3ccccn3)CC2)CO1 (stereo not drawn) | 2.02%
CNC(=O)CN1CCC2(CCCN(CC3CCOC3)C2)CC1 (stereo not drawn) | -6.27%
COCCN1C[C@@H]2CN(Cc3ccc(C)s3)CCC[C@]2(C(=O)O)C1 | 11.4%
Cc1ccc(CN2CCOC3(CCN(CC4CCOC4)CC3)C2)cc1 (stereo not drawn) | -1.57%
CNC(=O)[C@H]1C[C@@H]2CN(C(=O)c3ccc(C)nc3)C[C@@H]2N1C(C)C | -9.38%
O=C(NCc1ccccn1)[C@@]12CCO[C@@H]1CCN(Cc1ccccn1)C2 | -5.8%
